Measurements from US20170362283A1, “NISIN-BASED COMPOUNDS AND USE THEREOF IN THE TREATMENT OF BACTERIAL INFECTIONS” (UNIVERSITEIT UTRECHT HOLDING B.V., priority 2015, published 2017).

What was measured:
B. subtilis = details: duplicate experiments
E. coli = details: duplicate experiments
S. aureus = details: duplicate experiments
E. faecium E1162 = assay: BioScreen growth assay for E. faecium E1162; format: cell-based; details: 5 μM
Protocol: A BioScreen C instrument (Oy Growth Curves AB, Helsinki, Finland) was used to monitor effects of the compounds (6), (10), and (12) and the effect of compound (24) with R1-group (e), or Comparative compound B (nisin) on E. faecium growth (each compound administered at a fixed concentration 5 μM). E. faecium strains were inoculated at an initial OD660 of 0.05 into 300 μl TSB containing 1% DMSO and 1% glucose or into the same medium containing the antibiotic compounds at a final concentration of 5 μM. […]
The E. faecium strains used in these experiments are E. faecium E745 (vancomycin-ampicillin resistant hospital outbreak strain), E. faecium E980 (vancomycin-ampicillin susceptible human commensal isolate), E. Faecium E1133 (vancomycin-ampicillin resistant hospital outbreak strain), and E. faecium E1162 (vancomycin-susceptible ampicillin-resistant clinical isolate). The BioScreen growth assays for each strain was determined for the compounds (6), (10), (12) and also for compound (24) with R1-group (e) as well as nisin (Comparative compound B) and compared to non-treated strains, the results being shown in the Tables 9 to 12 below.

## nisin [Compound B]
B. subtilis
  MIC values B. subtilis: 0.625 to 2.5 µg/mL
E. coli
  MIC values E. coli: >10 µg/mL
S. aureus
  MIC values S. aureus: 10 µg/mL
E. faecium E1162; time 0 h
  OD600: 0.024
E. faecium E1162; time 4 h
  OD600: 0.01533
E. faecium E1162; time 8 h
  OD600: 0.01133
E. faecium E1162; time 12 h
  OD600: 0.012
E. faecium E1162; time 16 h
  OD600: 0.01033
